Read-outs that look alike come from different tables or passages of the source.
Assays:
human TLR7 = human TLR7 (Homo sapiens (Human), UniProt Q9NYK1); assay: TLR7 inhibition reporter assay (HEK-Blue cells, SEAP reporter, gardiquimod stimulation); format: cell-based
human TLR8 = human TLR8 (Homo sapiens (Human), UniProt Q9NR97); assay: TLR8 inhibition reporter assay (HEK-Blue cells, SEAP reporter, R848 stimulation);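 further: compounds tested from 0.05 nM to 50 µM, 22 h at 37 °C, SEAP measured with HEK-Blue Detection, inhibition relative to agonist plus DMSO versus a known inhibitor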
Chain of human TLR8 (Q9NR97 27-1041): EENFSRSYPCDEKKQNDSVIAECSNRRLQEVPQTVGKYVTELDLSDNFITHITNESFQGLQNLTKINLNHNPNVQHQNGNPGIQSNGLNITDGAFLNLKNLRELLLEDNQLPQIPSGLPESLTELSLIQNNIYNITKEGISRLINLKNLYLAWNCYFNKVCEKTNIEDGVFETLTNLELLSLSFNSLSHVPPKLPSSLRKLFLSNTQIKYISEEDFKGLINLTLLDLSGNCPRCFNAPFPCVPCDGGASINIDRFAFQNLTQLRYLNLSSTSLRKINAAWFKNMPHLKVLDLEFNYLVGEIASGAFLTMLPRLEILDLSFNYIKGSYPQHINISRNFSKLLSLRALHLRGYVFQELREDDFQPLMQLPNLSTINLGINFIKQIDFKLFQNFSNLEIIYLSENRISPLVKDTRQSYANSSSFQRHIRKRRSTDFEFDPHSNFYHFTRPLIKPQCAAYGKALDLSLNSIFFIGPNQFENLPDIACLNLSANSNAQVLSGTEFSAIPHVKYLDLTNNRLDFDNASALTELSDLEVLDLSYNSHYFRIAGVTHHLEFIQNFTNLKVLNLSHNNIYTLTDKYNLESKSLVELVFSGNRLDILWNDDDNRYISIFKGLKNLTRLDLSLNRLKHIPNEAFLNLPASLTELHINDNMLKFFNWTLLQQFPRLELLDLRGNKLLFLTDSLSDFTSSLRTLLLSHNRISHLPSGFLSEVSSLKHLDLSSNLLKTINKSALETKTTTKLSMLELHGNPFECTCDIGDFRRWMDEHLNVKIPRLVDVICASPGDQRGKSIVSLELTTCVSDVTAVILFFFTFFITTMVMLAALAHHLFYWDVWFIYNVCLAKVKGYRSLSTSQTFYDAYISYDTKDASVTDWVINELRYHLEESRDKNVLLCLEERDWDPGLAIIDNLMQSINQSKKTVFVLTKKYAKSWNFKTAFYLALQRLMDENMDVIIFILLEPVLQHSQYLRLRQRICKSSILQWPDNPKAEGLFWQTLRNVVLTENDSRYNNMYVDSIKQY

human TLR9 = human TLR9 (Homo sapiens (Human), UniProt Q9NR96); assay: TLR9 inhibition reporter assay (HEK-Blue cells, SEAP reporter, ODN2006 stimulation);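 further: compounds tested over 0.05 nM to 50 µM, 22 h incubation, inhibition taken as SEAP signal drop from agonist plus DMSO wells toward a known inhibitor control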
Chain of human TLR9 (Q9NR96 26-1032): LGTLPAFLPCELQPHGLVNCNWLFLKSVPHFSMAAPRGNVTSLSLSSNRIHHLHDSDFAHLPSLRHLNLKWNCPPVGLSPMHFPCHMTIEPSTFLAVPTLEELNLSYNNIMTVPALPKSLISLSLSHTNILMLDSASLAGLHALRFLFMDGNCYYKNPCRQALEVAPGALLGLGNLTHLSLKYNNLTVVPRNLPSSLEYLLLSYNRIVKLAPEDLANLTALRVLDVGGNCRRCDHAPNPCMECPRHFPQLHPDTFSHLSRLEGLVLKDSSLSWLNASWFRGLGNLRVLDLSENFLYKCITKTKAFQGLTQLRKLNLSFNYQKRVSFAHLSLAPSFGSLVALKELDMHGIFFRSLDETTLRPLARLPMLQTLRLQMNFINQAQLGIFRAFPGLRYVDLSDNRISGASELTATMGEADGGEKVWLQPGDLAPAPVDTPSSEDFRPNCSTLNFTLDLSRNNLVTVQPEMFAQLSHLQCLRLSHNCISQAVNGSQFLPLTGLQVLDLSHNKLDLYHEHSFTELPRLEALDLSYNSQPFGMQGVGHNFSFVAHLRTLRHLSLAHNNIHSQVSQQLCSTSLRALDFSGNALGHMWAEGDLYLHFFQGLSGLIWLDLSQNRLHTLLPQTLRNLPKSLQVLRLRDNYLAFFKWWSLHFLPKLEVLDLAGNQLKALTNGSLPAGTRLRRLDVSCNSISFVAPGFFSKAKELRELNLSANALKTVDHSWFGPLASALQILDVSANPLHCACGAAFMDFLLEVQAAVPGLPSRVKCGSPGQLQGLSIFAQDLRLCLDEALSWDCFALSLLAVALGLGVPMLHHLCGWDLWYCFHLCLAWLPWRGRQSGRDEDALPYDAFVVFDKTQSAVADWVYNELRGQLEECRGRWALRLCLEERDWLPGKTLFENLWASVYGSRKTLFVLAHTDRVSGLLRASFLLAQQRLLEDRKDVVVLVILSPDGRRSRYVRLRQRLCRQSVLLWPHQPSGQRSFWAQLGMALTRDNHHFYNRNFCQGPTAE

[1] = HEK-Blue cells overexpressing human TLR7, gardiquimod 7.5 μM
[2] = read-out: TLR8 IC50, HEK-Blue cells overexpressing human TLR8, R848 15.9 μM
[3] = read-out: TLR9 IC50, HEK-Blue cells overexpressing human TLR9, ODN2006 5 nM
[4] = HEK-Blue cells, gardiquimod 7.5 μM
[5] = read-out: TLR8 IC50, HEK-Blue cells, R848 15.9 μM
[6] = read-out: TLR9 IC50, HEK-Blue cells, ODN2006 5 nM

Chain of human TLR7 (Q9NYK1 27-1049): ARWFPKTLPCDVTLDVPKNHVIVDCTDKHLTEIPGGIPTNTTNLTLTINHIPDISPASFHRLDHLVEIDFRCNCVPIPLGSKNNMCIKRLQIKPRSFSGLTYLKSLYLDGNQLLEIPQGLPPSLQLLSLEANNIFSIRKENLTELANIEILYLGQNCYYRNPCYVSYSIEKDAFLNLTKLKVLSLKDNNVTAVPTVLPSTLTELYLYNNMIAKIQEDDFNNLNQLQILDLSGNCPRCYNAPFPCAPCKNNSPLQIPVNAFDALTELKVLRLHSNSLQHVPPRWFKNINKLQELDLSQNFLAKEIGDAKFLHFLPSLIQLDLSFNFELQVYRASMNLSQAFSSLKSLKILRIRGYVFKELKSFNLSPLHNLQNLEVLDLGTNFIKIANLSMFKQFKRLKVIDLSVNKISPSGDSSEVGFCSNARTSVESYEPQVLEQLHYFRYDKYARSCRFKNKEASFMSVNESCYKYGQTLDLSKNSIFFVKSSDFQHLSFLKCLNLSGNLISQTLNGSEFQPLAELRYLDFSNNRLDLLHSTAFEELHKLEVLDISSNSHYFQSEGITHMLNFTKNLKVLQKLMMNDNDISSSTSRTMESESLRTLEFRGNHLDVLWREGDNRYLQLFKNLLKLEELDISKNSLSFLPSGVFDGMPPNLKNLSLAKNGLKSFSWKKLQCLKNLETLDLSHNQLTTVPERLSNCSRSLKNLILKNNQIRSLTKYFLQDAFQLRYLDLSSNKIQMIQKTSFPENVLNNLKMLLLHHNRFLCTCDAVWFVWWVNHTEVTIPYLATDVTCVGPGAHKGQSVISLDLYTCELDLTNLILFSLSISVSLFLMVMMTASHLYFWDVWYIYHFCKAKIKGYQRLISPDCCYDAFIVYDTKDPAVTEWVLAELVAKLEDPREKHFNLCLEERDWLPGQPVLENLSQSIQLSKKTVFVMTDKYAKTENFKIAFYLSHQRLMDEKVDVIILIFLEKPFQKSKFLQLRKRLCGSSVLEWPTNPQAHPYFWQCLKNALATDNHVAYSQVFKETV

| Structure (SMILES) | IC50 (human TLR7; [1]) | IC50 (human TLR8; [2]) | IC50 (human TLR9; [3]) | IC50 (human TLR7; [4]) | IC50 (human TLR8; [5]) | IC50 (human TLR9; [6]) |
| --- | --- | --- | --- | --- | --- | --- |
| CC(C)c1c(-c2ccncc2)[nH]c2ccc(C3CCN(C(=O)CN(C)C)CC3)cc12 [Example 524, 2-(dimethylamino)-1-(4-(3-isopropyl-2-(pyridin-4-yl)-1H-indol-5-yl)piperidin-1-yl) ethan-1-one] | 0.0336 µM | 0.0292 µM | 2.81 µM |  |  |  |
| Cc1cc(-c2[nH]c3ccc(C4CCN(C(=O)C5CC(=O)N(C(C)(C)C)C5)CC4)cc3c2C(C)C)ccn1 (stereo not drawn) [Example 613, 1-(tert-butyl)-4-(4-(3-isopropyl-2-(2-methylpyridin-4-yl)-1H-indol-5-yl)piperidine-1-carbonyl)pyrrolidin-2-one] | 0.0551 µM | 0.206 µM | 7.63 µM |  |  |  |
| Cc1cc(-c2[nH]c3ccc(C4CCN(C5CCN(C(C)C)CC5)CC4)cc3c2C)cc(C)n1 [Example 813, 2-(2,6-dimethylpyridin-4-yl)-5-(1′-isopropyl-[1,4′-bipiperidin]-4-yl)-3-methyl-1H-indole] |  |  |  | 0.533 µM | 0.114 µM | 0.042 µM |
| Cc1cc(-c2[nH]c3ccc(C4CCN(C(=O)C(C)C)CC4)cc3c2C(C)C)ccn1 [Example 602, 1-(4-(3-isopropyl-2-(2-methylpyridin-4-yl)-1H-indol-5-yl)piperidin-1-yl)-2-methylpropan-1-one] | 0.0247 µM | 0.158 µM | 32 µM |  |  |  |
| CCC(=O)N1CCC(c2ccc3[nH]c(-c4ccnc(C)c4)c(C(C)C)c3c2)CC1 [Example 603, 1-(4-(3-isopropyl-2-(2-methylpyridin-4-yl)-1H-indol-5-yl)piperidin-1-yl)propan-1-one] | 0.049 µM | 0.228 µM | 37.3 µM |  |  |  |
| Cc1cc(-c2[nH]c3ccc(C4CCN(C(C)CF)CC4)cc3c2C(C)C)ccn1 (stereo not drawn) [Example 864, 5-(1-(1-fluoropropan-2-yl)piperidin-4-yl)-3-isopropyl-2-(2-methylpyridin-4-yl)-1H-indole] |  |  |  | 0.0167 µM | 0.0107 µM | 0.917 µM |
| COc1ncc(CN2CCC(c3ccc4[nH]c(-c5ccnc(C)c5F)c(C(C)C)c4c3)CC2)cn1 [Example 731, 2-(3-fluoro-2-methylpyridin-4-yl)-3-isopropyl-5-(1-((2-methoxypyrimidin-5-yl)methyl)piperidin-4-yl)-1H-indole] | 0.0089 µM | 0.0027 µM | 1.31 µM |  |  |  |
| Cc1cc(-c2[nH]c3ccc(C4CCN(C(=O)CN5CCC[C@@H]5CO)CC4)cc3c2C(C)C)cc(C)n1 [Example 412, (R)-1-(4-(2-(2,6-dimethylpyridin-4-yl)-3-isopropyl-1H-indol-5-yl)piperidin-1-yl)-2-(2-(hydroxymethyl)pyrrolidin-1-yl)ethan-1-one] | 0.0047 µM | 0.034 µM | 0.568 µM |  |  |  |
| COC(C)CN1CCC(c2ccc3[nH]c(-c4cc(C)nc(C)c4)c(C(C)C)c3c2)CC1 (stereo not drawn) [Example 332, 2-(2,6-dimethylpyridin-4-yl)-3-isopropyl-5-(1-(2-methoxypropyl)piperidin-4-yl)-1H-indole] | 0.0052 µM | 0.0045 µM | 0.396 µM |  |  |  |
| Cc1cc(-c2[nH]c3ccc(C4CCN(CC(=O)N5CCC6(CC5)COC6)CC4)cc3c2C(C)C)cc(C)n1 [Example 286, 2-(4-(2-(2,6-dimethylpyridin-4-yl)-3-isopropyl-1H-indol-5-yl)piperidin-1-yl)-1-(2-oxa-7-azaspiro[3.5]nonan-7-yl)ethan-1-one] | 0.0062 µM | 0.014 µM | 0.261 µM |  |  |  |
| Cc1cc(-c2[nH]c3ccc(C4CCN(C(C)C)CC4)cc3c2C(C)C)c(C)cn1 [Example 641, 2-(2,5-dimethylpyridin-4-yl)-3-isopropyl-5-(1-isopropylpiperidin-4-yl)-1H-indole] | 0.033 µM | 0.0097 µM | 2.67 µM |  |  |  |
| Cc1cc(-c2[nH]c3ccc(C4CCN(C(CF)CF)CC4)cc3c2C(C)C)ccn1 [Example 865, 5-(1-(1,3-difluoropropan-2-yl)piperidin-4-yl)-3-isopropyl-2-(2-methylpyridin-4-yl)-1H-indole] |  |  |  | 0.0367 µM | 0.0283 µM | 1.03 µM |

Reference: US10660877B2 (BRISTOL-MYERS SQUIBB COMPANY, priority 2016, dated 2020)
